Active and inactive are the calls of the source.
Columns and labels:
HEK293 [1] = test: EBV LMP1 TES2 canonical NF-kB signalling blockers – cell-based, HEK293, luciferase, cherry-pick, dose response (AID 588343); format: functional; settings: Homo sapiens
BJ = test: BJ-TERT fibroblast viability loss – cell-based, RAS-independent, luminescence, dose response (AID 1933); format: functional; settings: Homo sapiens
HEK293 [2] = test: optical interference in Abeta FP readout, dose response, artefact control for IDE activator project, biochemical, fluorescence polarization (AID 588442); format: functional, cell-based; settings: Homo sapiens
[3] = THP-1 cell cytotoxicity, dose response, cytotoxicity control for non-replicating M. tuberculosis project (AID 489025); format: functional
[4] = Luminescence Cell-Based Dose Response HTS to Identify Inhibitors of 5'UTR Stem-Loop Driven Prion Protein mRNA Translation in H4 Neuroglioblastoma Cells. [Related pubchem assays: 1827 (Project Summary), 1813 (Primary HTS)]; format: functional
[5] = luciferase reporter signal suppression in cells – H4 neuroglioma cells, luminescence, dose response (AID 1990); format: functional, cell-based
[6] = target: T1, Tyrosyl-DNA phosphodiesterase 2 (Homo sapiens, UniProt O95551); test: potency against TDP2 phosphodiesterase activity – biochemical, epi absorbance, IC50, dose response (AID 743297)
T1 sequence (O95551 whole entry): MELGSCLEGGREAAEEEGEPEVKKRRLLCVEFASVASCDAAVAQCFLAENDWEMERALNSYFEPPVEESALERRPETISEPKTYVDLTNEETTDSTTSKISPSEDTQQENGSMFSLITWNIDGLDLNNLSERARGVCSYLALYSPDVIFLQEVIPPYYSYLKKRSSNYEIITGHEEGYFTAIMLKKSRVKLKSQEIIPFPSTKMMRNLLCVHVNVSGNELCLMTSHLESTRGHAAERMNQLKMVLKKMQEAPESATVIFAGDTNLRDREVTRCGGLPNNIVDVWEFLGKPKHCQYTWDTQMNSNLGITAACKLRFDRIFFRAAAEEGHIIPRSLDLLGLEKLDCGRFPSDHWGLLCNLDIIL

Streptokinase A = target: T2, Streptokinase A (Streptococcus pyogenes serotype M1, UniProt P10520); test: viability-normalized secreted streptokinase activity reduction – plasminogen activation absorbance, OD405, dose response (AID 1914); format: functional, Streptococcus pyogenes M1 GAS;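 also: secreted streptokinase activity via plasminogen activation per viability signal from cell pellet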
T2 sequence (P10520 whole entry): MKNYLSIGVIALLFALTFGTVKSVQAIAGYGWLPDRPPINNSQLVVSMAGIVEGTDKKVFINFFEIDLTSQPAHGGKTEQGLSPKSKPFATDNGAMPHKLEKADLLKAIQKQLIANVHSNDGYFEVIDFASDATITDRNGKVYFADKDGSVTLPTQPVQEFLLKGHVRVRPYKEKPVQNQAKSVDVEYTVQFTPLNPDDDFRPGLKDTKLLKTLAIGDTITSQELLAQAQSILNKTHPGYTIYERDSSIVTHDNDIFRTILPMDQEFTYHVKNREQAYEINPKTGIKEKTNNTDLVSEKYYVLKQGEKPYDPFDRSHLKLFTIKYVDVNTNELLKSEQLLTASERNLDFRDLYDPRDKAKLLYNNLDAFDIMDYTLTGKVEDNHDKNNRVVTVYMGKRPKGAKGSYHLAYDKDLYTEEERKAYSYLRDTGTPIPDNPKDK

Beta-galactosidase = Beta-galactosidase (Escherichia coli, UniProt Q8VNN2); test: PubChem AID 485352; format: functional
Chain of Beta-galactosidase (Q8VNN2 whole entry): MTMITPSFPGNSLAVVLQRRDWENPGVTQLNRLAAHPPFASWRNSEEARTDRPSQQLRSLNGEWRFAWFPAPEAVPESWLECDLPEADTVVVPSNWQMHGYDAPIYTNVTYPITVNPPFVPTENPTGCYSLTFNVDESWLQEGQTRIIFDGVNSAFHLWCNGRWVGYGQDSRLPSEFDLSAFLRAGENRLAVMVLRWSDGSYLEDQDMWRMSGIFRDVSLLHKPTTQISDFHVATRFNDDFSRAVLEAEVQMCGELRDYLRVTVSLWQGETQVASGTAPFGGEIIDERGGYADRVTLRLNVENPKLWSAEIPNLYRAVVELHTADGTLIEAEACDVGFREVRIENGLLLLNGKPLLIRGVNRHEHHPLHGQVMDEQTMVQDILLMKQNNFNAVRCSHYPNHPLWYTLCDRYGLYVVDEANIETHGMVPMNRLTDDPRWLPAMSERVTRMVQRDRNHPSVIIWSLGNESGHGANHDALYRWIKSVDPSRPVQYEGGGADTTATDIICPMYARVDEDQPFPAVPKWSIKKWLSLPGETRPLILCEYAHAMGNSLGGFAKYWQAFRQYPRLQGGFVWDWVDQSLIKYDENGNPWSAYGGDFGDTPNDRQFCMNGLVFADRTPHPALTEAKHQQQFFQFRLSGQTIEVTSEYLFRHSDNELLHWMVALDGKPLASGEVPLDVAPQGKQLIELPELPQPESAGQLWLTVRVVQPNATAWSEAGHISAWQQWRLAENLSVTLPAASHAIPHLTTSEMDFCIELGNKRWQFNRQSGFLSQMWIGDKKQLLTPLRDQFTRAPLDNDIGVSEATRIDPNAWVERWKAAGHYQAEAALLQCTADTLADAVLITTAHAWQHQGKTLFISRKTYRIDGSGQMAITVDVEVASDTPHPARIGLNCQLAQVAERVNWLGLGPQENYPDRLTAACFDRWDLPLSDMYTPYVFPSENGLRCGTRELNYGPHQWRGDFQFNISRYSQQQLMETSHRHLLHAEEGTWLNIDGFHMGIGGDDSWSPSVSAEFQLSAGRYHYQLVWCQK

Vero = test: viability of Vero cells under compound – cytotoxicity control for flavivirus capping enzyme inhibitors (AID 588742); format: functional; settings: Chlorocebus sabaeus

CC(=O)NC(c1ccc2ccccc2c1)c1ccc2cccnc2c1O (stereo not given)
AC50 (HEK293 [1]): 4.18 µM (active)
EC50 (BJ): 0.687 µM (active)

CCOC(=O)C1=C(c2ccccc2)N=C(N)NC1c1ccc(OCc2ccc(Cl)cc2)c(OC)c1 (stereo not given)
EC50 (HEK293 [2]): > 55.9 µM (inactive)
CC50 [3]: 9.43 µM (active)

CCOC(=O)c1c(C)[nH]c2c1-c1ccccc1C(=O)C2=O
EC50 [4]: 1.35 µM (active)
EC50 [5]: 3.02 µM (active)
IC50 [6]: 0.915 µM (active)

O=[N+]([O-])c1c(NCCO)cc(Sc2nc3ccccc3s2)c2nonc12
EC50 (Streptokinase A): > 150 µM (not active)
EC50 (Beta-galactosidase): > 40 µM (inactive)
CC50 (Vero): 32.9 µM (active)
